Data as given in article PMC5699943 (Biotechnology and bioengineering, 2017).

Assays:
Experiment in all cases: formaldehyde-responsive FrmR GFP reporter in E. coli cells
Assay type in all cases: cell-based
Settings in all cases: whole cells, 0-500 mM methanol, 2 h, 37°C, NAD-dependent
[1] = molecular target: T1, mdh from Geobacillus stearothermophilus (Geobacillus stearothermophilus, UniProt P42327)
T1 sequence (P42327 1-339): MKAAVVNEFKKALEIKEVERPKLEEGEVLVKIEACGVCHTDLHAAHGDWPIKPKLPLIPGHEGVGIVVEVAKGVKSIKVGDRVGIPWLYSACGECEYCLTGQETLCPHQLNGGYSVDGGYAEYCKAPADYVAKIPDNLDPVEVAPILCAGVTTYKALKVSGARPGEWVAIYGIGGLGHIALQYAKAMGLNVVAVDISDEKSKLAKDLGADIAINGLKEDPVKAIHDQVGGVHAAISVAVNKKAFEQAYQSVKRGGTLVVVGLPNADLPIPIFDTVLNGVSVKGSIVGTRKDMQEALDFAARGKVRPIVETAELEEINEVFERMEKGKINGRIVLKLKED

AdhA from C. glutamicum = molecular target: T2, AdhA from C. glutamicum (Corynebacterium glutamicum, UniProt Q8NLX9)
T2 sequence (Q8NLX9 1-345): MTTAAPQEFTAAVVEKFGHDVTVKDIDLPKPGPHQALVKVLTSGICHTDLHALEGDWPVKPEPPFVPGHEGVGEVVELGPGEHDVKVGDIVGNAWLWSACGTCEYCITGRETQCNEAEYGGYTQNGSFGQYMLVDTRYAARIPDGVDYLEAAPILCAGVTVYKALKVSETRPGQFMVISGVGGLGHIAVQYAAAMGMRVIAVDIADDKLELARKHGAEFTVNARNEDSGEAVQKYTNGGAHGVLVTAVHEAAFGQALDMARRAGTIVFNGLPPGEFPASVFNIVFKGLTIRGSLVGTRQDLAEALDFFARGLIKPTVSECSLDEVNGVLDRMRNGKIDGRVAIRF

[2] = molecular target: T3, mdh2 from Cupriavidus necator (Cupriavidus necator, UniProt F8GNE5)
T3 sequence (F8GNE5 1-390): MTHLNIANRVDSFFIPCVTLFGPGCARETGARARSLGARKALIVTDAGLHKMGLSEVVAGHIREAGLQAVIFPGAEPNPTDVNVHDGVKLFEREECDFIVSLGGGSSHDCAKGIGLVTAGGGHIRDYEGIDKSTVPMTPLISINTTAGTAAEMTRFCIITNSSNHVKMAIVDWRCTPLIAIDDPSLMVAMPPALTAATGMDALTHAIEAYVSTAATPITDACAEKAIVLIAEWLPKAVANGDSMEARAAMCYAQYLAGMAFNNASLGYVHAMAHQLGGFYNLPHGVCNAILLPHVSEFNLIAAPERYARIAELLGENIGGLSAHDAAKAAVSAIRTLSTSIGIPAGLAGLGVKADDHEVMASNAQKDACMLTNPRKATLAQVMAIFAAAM

## CO [methanol]
[1]
  formaldehyde-responsive FrmR GFP reporter in E. coli cells: After two hours, signal was detected for all variants except Mdh1
AdhA from C. glutamicum
  formaldehyde-responsive FrmR GFP reporter in E. coli cells: After two hours, signal was detected for all variants except Mdh1
[2]
  formaldehyde-responsive FrmR GFP reporter in E. coli cells: After two hours, signal was detected for all variants except Mdh1
